Results as given in EPA's ToxRefDB 2.

Key:
rat [1] = conditions: Subchronic oral toxicity in rodents, fischer, Gavage/Intubation, dose end: 13 week
rat [2] = conditions: Carcinogenicity, fischer, Oral, Gavage/Intubation, dose end: 105 week, group: systemic
mouse [3] = conditions: Subchronic oral toxicity in rodents, b6c3f1, Gavage/Intubation, dose end: 22 week, group: systemic, systemic / in life observation / clinical signs / aggressive behavior + systemic / in life observation / clinical signs / convulsions + …
rat [4] = conditions: Subchronic oral toxicity in rodents, fischer, Gavage/Intubation, dose end: 13 week, group: systemic, systemic / in life observation / clinical signs / aggressive behavior + systemic / in life observation / clinical signs / hypersensitivity…
mouse [5] = conditions: Subchronic oral toxicity in rodents, b6c3f1, Gavage/Intubation, dose end: 13 week
mouse [6] = conditions: Subchronic oral toxicity in rodents, b6c3f1, Feed, dose end: 12 week, group: systemic
rat [7] = conditions: Combined chronic toxicity/carcinogenicity; fischer; Oral; Feed; dose end: 2 year; group: systemic; systemic / in life observation / body weight / body weight
mouse [8] = conditions: Combined chronic toxicity/carcinogenicity, b6c3f1, Oral, Feed, dose end: 2 year, group: systemic
rat [9] = conditions: Subchronic oral toxicity in rodents, fischer, Feed, dose end: 12 week, group: systemic
mouse [10] = conditions: Carcinogenicity; b6c3f1; Oral; Feed; dose end: 103 week; group: systemic; systemic / in life observation / body weight / body weight
mouse [11] = conditions: Carcinogenicity, b6c3f1, Oral, Feed, dose end: 2 year, group: systemic
dog = conditions: Subchronic oral toxicity in nonrodent, beagle, Capsule, dose end: 26 week, group: systemic
mouse [12] = conditions: Subchronic oral toxicity in rodents, b6c3f1, Feed, dose end: 13 week, group: systemic
rat [13] = conditions: Combined chronic toxicity/carcinogenicity, fischer, Oral, Feed, dose end: 2 year, group: systemic
rat [14] = conditions: Multigenerational reproductive toxicity study, sprague dawley, Oral, Feed, dose end: 2 generation
rat [15] = conditions: Carcinogenicity; fischer; Oral; Feed; dose end: 103 week; group: systemic; systemic / pathology microscopic / pituitary gland / hyperplasia
rat [16] = conditions: Subchronic oral toxicity in rodents, fischer, Feed, dose end: 13 week, group: systemic
rat [17] = conditions: Chronic toxicity, fischer, Oral, Feed, dose end: 103 week, group: systemic
rat [18] = conditions: Prenatal developmental toxicity study, other, Oral, Gavage/Intubation, dose end: 19 GD
mouse [19] = conditions: Prenatal developmental toxicity study; cd1; Oral; Gavage/Intubation; dose end: 17 GD; group: developmental; systemic / in life observation / clinical signs / aggressive behavior + systemic / organ weight / testes / absolute
rat [20] = conditions: Multigenerational reproductive toxicity study, sprague dawley, Oral, Feed, dose end: 2 generation; remark: listed apart in the source
[21] = group: maternal, reproductive / reproductive performance / estrous cycle / abnormal
[22] = group: systemic, systemic / in life observation / body weight / body weight + systemic / in life observation / body weight / body weight gain
[23] = group: systemic, systemic / in life observation / clinical signs / aggressive behavior + systemic / in life observation / clinical signs / reactivity to …
[24] = systemic / in life observation / clinical signs / [other] + systemic / in life observation / clinical signs / convulsions
[25] = systemic / in life observation / clinical signs / [other] + systemic / in life observation / clinical signs / convulsions + systemic / …
[26] = group: systemic, systemic / in life observation / clinical signs / aggressive behavior + systemic / in life observation / clinical signs / convulsions + …
[27] = systemic / in life observation / body weight / body weight gain
[28] = systemic / in life observation / body weight / body weight + systemic / pathology microscopic / liver / carcinoma
[29] = systemic / pathology microscopic / liver / carcinoma
[30] = systemic / in life observation / body weight / body weight gain + systemic / pathology microscopic / bone marrow / hyperplasia + systemic / …
[31] = systemic / in life observation / body weight / body weight + systemic / in life observation / body weight / body weight gain
[32] = systemic / in life observation / body weight / body weight + systemic / in life observation / body weight / body weight gain + systemic / in…
[33] = systemic / clinical chemistry / cholesterol / cholesterol + systemic / clinical chemistry / glucose / glucose + systemic / hematology / …
[34] = systemic / in life observation / body weight / body weight + systemic / in life observation / mortality / mortality + systemic / organ …
[35] = systemic / organ weight / liver / relative to body weight + systemic / organ weight / liver / absolute
[36] = systemic / in life observation / body weight / body weight + systemic / in life observation / food consumption / food consumption + systemic…
[37] = group: offspring, systemic / in life observation / body weight / offspring (pup) weight + systemic / in life observation / body weight / offspring (pup) …
[38] = group: parental, systemic / in life observation / body weight / body weight + systemic / in life observation / body weight / body weight gain
[39] = group: reproductive, reproductive / offspring survival early / litter size / litter size + reproductive / offspring survival early / birth index / live birth …
[40] = systemic / in life observation / body weight / body weight + systemic / in life observation / clinical signs / fur (altered appearance) + …
[41] = systemic / pathology microscopic / skin / subcutaneous mass
[42] = group: developmental, systemic / in life observation / body weight / fetal weight
[43] = group: maternal, systemic / in life observation / clinical signs / abnormal movements + systemic / in life observation / clinical signs / salivation
[44] = group: offspring, systemic / in life observation / clinical signs / [other]
[45] = group: parental, systemic / organ weight / liver / relative to body weight

SMILES: CCCCCc1cc(O)c2c(c1)OC(C)(C)[C@@H]1CCC(C)=C[C@@H]21 [1-trans-delta-9-Tetrahydrocannabinol]
- LEL (rat [1]; [21]): 15 mg/kg/day
- LOAEL (rat [1]; [21]): > 500 mg/kg/day
- NEL (rat [1]; [21]): 5 mg/kg/day
- NOAEL (rat [1]; [21]): ≥ 500 mg/kg/day
- LOAEL (rat [1]; [22]): 15 mg/kg/day
- LEL (rat [1]; [23]): 5 mg/kg/day
- NEL (rat [1]; [23]): < 5 mg/kg/day
- NOAEL (rat [1]; [23]): 5 mg/kg/day
- LOAEL (rat [2]; [24]): 12.5 mg/kg/day
- NOAEL (rat [2]; [24]): < 12.5 mg/kg/day
- LEL (rat [2]; [25]): 12.5 mg/kg/day
- NEL (rat [2]; [25]): < 12.5 mg/kg/day
- LEL (mouse [3]): 5 mg/kg/day
- LOAEL (mouse [3]): > 500 mg/kg/day
- NEL (mouse [3]): < 5 mg/kg/day
- NOAEL (mouse [3]): ≥ 500 mg/kg/day
- LEL (rat [4]): 5 mg/kg/day
- LOAEL (rat [4]): > 500 mg/kg/day
- NEL (rat [4]): < 5 mg/kg/day
- NOAEL (rat [4]): ≥ 500 mg/kg/day
- LEL (mouse [5]; [21]): 5 mg/kg/day
- LOAEL (mouse [5]; [21]): > 500 mg/kg/day
- NEL (mouse [5]; [21]): < 5 mg/kg/day
- NOAEL (mouse [5]; [21]): ≥ 500 mg/kg/day
- LOAEL (mouse [5]; [22]): 500 mg/kg/day
- LEL (mouse [5]; [26]): 5 mg/kg/day
- NEL (mouse [5]; [26]): < 5 mg/kg/day
- NOAEL (mouse [5]; [26]): 150 mg/kg/day

SMILES: O=S(=O)([O-])c1ccc(N=Nc2c(O)ccc3cc(S(=O)(=O)[O-])ccc23)cc1.[Na+].[Na+] [FD&C Yellow 6]
- LEL (mouse [6]; [27]): 900 mg/kg/day
- LOAEL (mouse [6]; [27]): 15000 mg/kg/day
- NEL (mouse [6]; [27]): < 900 mg/kg/day
- NOAEL (mouse [6]; systemic / in life observation / body weight / body weight gain + systemic / in life observation / body weight / body weight): 7500 mg/kg/day
- LEL (rat [7]): 1250 mg/kg/day
- LOAEL (rat [7]): > 1250 mg/kg/day
- NEL (rat [7]): 625 mg/kg/day
- NOAEL (rat [7]): ≥ 1250 mg/kg/day
- LOAEL (mouse [8]; [28]): > 3750 mg/kg/day
- NOAEL (mouse [8]; [28]): ≥ 3750 mg/kg/day
- LEL (mouse [8]; [29]): 1880 mg/kg/day
- NEL (mouse [8]; [29]): < 1880 mg/kg/day
- LEL (rat [9]; [27]): 625 mg/kg/day
- LOAEL (rat [9]; [27]): 2500 mg/kg/day
- NEL (rat [9]; [30]): 300 mg/kg/day
- NOAEL (rat [9]; [30]): 1250 mg/kg/day

SMILES: C=C(C)[C@H]1Cc2c(ccc3c2O[C@@H]2COc4cc(OC)c(OC)cc4[C@@H]2C3=O)O1 [Rotenone]
- LEL (mouse [10]): 111 mg/kg/day
- LOAEL (mouse [10]): > 242 mg/kg/day
- NEL (mouse [10]): < 111 mg/kg/day
- NOAEL (mouse [10]): ≥ 242 mg/kg/day
- LOAEL (mouse [11]; [31]): 111 mg/kg/day
- NOAEL (mouse [11]; [31]): < 111 mg/kg/day
- LEL (mouse [11]; [32]): 111 mg/kg/day
- NEL (mouse [11]; [32]): < 111 mg/kg/day
- LOAEL (dog; [33]): 10 mg/kg/day
- NEL (dog; [33]): 0.4 mg/kg/day
- NOAEL (dog; [33]): 2 mg/kg/day
- LEL (dog; [32]): 2 mg/kg/day
- LOAEL (mouse [12]; [34]): > 7500 mg/kg/day
- NOAEL (mouse [12]; [34]): ≥ 7500 mg/kg/day
- LEL (mouse [12]; [35]): 90 mg/kg/day
- NEL (mouse [12]; [35]): < 90 mg/kg/day
- LOAEL (rat [13]; systemic / in life observation / body weight / body weight + systemic / in life observation / food consumption / food consumption): 1.88 mg/kg/day
- LEL (rat [13]; [36]): 1.88 mg/kg/day
- NEL (rat [13]; [36]): 0.375 mg/kg/day
- NOAEL (rat [13]; [36]): 0.375 mg/kg/day
- LEL (rat [14]; [37]): 3.1 mg/kg/day
- LOAEL (rat [14]; [37]): 3.1 mg/kg/day
- NEL (rat [14]; [37]): 0.6 mg/kg/day
- NOAEL (rat [14]; [37]): 0.6 mg/kg/day
- LEL (rat [14]; [38]): 3 mg/kg/day
- LOAEL (rat [14]; [38]): 3 mg/kg/day
- NEL (rat [14]; [38]): 0.6 mg/kg/day
- NOAEL (rat [14]; [38]): 0.6 mg/kg/day
- LEL (rat [14]; [39]): 7 mg/kg/day
- LOAEL (rat [14]; [39]): > 7 mg/kg/day
- NEL (rat [14]; [39]): 3.1 mg/kg/day
- NOAEL (rat [14]; [39]): ≥ 7 mg/kg/day
- LEL (rat [15]): 3.4 mg/kg/day
- LOAEL (rat [15]): > 3.4 mg/kg/day
- NEL (rat [15]): 1.7 mg/kg/day
- NOAEL (rat [15]): ≥ 3.4 mg/kg/day
- LOAEL (rat [16]; [40]): > 60 mg/kg/day
- NEL (rat [16]; [40]): 3.75 mg/kg/day
- NOAEL (rat [16]; [40]): ≥ 60 mg/kg/day
- LEL (rat [16]; systemic / in life observation / body weight / body weight + systemic / pathology microscopic / bone marrow / atrophy + systemic / pathology…): 7.5 mg/kg/day
- LOAEL (rat [17]; systemic / pathology microscopic / pituitary gland / hyperplasia + systemic / pathology microscopic / parathyroid gland / hyperplasia): 3.4 mg/kg/day
- NOAEL (rat [17]; systemic / pathology microscopic / pituitary gland / hyperplasia + systemic / pathology microscopic / parathyroid gland / hyperplasia + …): 1.7 mg/kg/day
- LEL (rat [17]; [41]): 1.8 mg/kg/day
- NEL (rat [17]; [41]): < 1.8 mg/kg/day
- LEL (rat [18]; [42]): 6 mg/kg/day
- LOAEL (rat [18]; [42]): 6 mg/kg/day
- NEL (rat [18]; [42]): 3 mg/kg/day
- NOAEL (rat [18]; [42]): 3 mg/kg/day
- LEL (rat [18]; [43]): 0.75 mg/kg/day
- LOAEL (rat [18]; [43]): 0.75 mg/kg/day
- NEL (rat [18]; [43]): < 0.75 mg/kg/day
- NOAEL (rat [18]; [43]): < 0.75 mg/kg/day

SMILES: Clc1ccc(C(c2ccccc2Cl)C(Cl)(Cl)Cl)cc1 (stereo not drawn) [o,p'-DDT]
- LEL (mouse [19]): 18 mg/kg/day
- LOAEL (mouse [19]): > 180 mg/kg/day
- NEL (mouse [19]): < 18 mg/kg/day
- NOAEL (mouse [19]): ≥ 180 mg/kg/day
- LEL (rat [20]; [44]): 10 mg/kg/day
- LOAEL (rat [20]; [44]): > 10 mg/kg/day
- NEL (rat [20]; [44]): 1 mg/kg/day
- NOAEL (rat [20]; [44]): ≥ 10 mg/kg/day
- LEL (rat [20]; [45]): 10 mg/kg/day
- LOAEL (rat [20]; [45]): > 10 mg/kg/day
- NEL (rat [20]; [45]): 1 mg/kg/day
- NOAEL (rat [20]; [45]): ≥ 10 mg/kg/day
